# From patent US11524011B2, “H3K27 demethylase inhibitors in pediatric and juvenile osteoporosis” (THE JOHNS HOPKINS UNIVERSITY, priority 2017, dated 2022)
# “Also recorded” adds a separate entry of the source.
# B1: GH: recombinant mouse growth hormone (protein, UniProt P06880 27-216, looked up)
# Somatotropin: FPAMPLSSLFSNAVLRAQHLHQLAADTYKEFERAYIPEGQRYSIQNAQAAFCFSETIPAPTGKEEAQQRTDMELLRFSLLLIQSWLGPVQFLSRIFTNSLMFGTSDRVYEKLKDLEEGIQALMQELEDGSPRVGQILKQTYDKFDANMRSDDALLKNYGLLSCFKKDLHKAETYLRVMKCRRFVESSCAF
# Experiments:
# BALB/c mice [1] = test: GSK-J4 in glucocorticoid (MPS)-treated young BALB/c mice: body weight, tail length, bone loss (μCT), angiogenesis and osteogenesis
# Procedure: FIGS. 10A-10B. […] Body weight (10A) and Tail length (10B) were monitored at 2, 3, and 4 weeks after treatment. FIGS. 11A-11F. […] (11A) Representative μCT images of distal femur. Quantitative analyses of Femur length (11B), Trabecular bone volume fraction (BV/TV) (11C), trabecular number (Tb.N) (11D), trabecular thickness (Tb.Th) (11E), and trabecular separation (Tb.Sp) (11F). […] FIGS. 12A-12F. […] (12A-B) Double-immunofluorescence staining of femur sections was performed using antibodies against nestin (green) and H3K27me3 (red) (12A). Quantification of the percentage of nestin^+ cells that express H3K27me3 in the primary spongiosa (12B). Immunofluorescence staining of femur sections using antibody against osterix (Osx) (12C). Quantitative analysis of Osx^+ cells in the primary spongiosa (12D). Double-immunofluorescence staining of femur sections was performed using antibodies against CD31 (green) and endomucin (Emcn) (red) (12E). […] DAPI stains nuclei blue. Seven mice per group. GP, growth plate. PS, primary spongiosa. Mice femora were dissected, fixed overnight in 70% ethanol, and analyzed by high-resolution μCT (Skyscan 1172, Bruker MicroCT, Kontich, Belgium). We used NRecon image reconstruction software, version 1.6, (Bruker MicroCT), CTAn data-analysis software, version 1.9 (Bruker MicroCT), and CTVol 3-dimensional model visualization software, version 2.0, (Bruker MicroCT) to analyze parameters of the trabecular bone in the metaphysis and cortical bone in the mid-diaphysis. The scanner was set at 50 kVp, […]. Cross-sectional images of the distal femur were used to perform 3-dimensional histomorphometric analysis of trabecular bone. The sample area selected for analyses was a 2-mm length of the metaphyseal secondary spongiosa, originating 1.0 mm below the epiphyseal growth plate and extending caudally. Cortical morphometry was analyzed within a 600-μm long section at mid-diaphysis of the femur and included measurements of average thickness and cross-sectional area. […] Nuclei were counterstained with DAPI (Sigma).
# [2] = test system: childhood cancer diffuse intrinsic pontine glioma; conditions: preclinical studies; cited from earlier work
# BALB/c mice [3] = conditions: MPS daily for 2 weeks; compared to controls
# Procedure: Four-week-old BALB/c mice were treated with methylprednisolone (MPS) or vehicle daily for 2 weeks. (8A) A schematic illustration of the steps to isolate CD144^+ vascular endothelial cells from femoral metaphyses. […] (8D-8G) Quantitative RT-PCR analysis of ki67 (8D) p16^INK4a (8E), p53 (8F), and p21^CIP1 (8G) expression in the sorted CD144^+ cells. n=3, Data are represented as mean±s.e.m. *p<0.01 as determined by Student's t-tests.
# Nestin-GFP mice [4] = test: Prednisolone treatment of early pubertal Nestin-GFP mice: cellular senescence / nestin expression in femoral primary spongiosa; assay type: in vivo, mouse
# Procedure: (§1) FIGS. 4A-4L. Cellular Senescence in Primary Spongiosa of Long Bone is Decelerated in Growth Hormone (GH)-Treated Mice and Accelerated in Prednisolone-Treated Mice. (4A-4F) Four week-old Nestin-GFP mice were treated with recombinant mouse-GH (5 mg/kg·B·W.) or Vehicle by daily intraperitoneal injection for 4 weeks. Immunofluorescence staining of femur sections were performed using antibodies against GFP (green) (4A) or Ki67 (red) (4E). Images in upper panels in (4A) and (4E) are lower power with boxes outlining the area of higher power in lower panels. Quantification of the number of GFP+ (4B) or Ki67+ (4F) cells in femoral primary spongiosa. […] (4G-4L) Two-week-old Nestin-GFP mice were treated with prednisolone (10 mg/m^2/day) or Vehicle by daily intraperitoneal injection for 2 weeks. Immunofluorescence staining of femur sections were performed using antibodies against GFP (green) (4G) or Ki67 (red) (4K). Images in upper panels in (4G) and (4K) are lower power with boxes outlining the area of higher power in lower panels. Quantification of the number of GFP+ (4H) or Ki67+ (4L) cells in femoral primary spongiosa. […] Five mice per group. […] GP, growth plate.
# (§2) For flow cytometric analysis and sorting of CD45-GFP− and CD45-GFP+ mesenchymal progenitor cells (MPCs) from femoral metaphysis, we dissected the femora free of soft tissues from Nestin-GFP mice. The epiphysis was removed and only the 3-mm-long metaphysis regions were processed. The bone was then digested with a protease solution (2 mg/mL collagenase A and 2.5 mg/mL trypsin in phosphate buffered saline [PBS]) for 20 minutes to remove the periosteum and periosteal progenitors (step I). […]
# One of the major causes of secondary osteoporosis in children is the use of glucocorticoids for treatment of underlying chronic medical problems, such as autoimmune or inflammatory disorders. […] We thus assessed whether glucocorticoid-treated early pubertal mice display premature cellular senescence in primary spongiosa by injecting mice daily with prednisolone from age 2 weeks to 4 weeks.
# Nestin-GFP mice [5] = test: Growth hormone treatment of pubertal Nestin-GFP mice: cellular senescence / nestin expression in femoral primary spongiosa; assay type: in vivo, mouse
# Procedure: as §1
# as §2, with “I). The bones were cut into small pieces and digested in the protease solution for another 1 hour (C, step II).” for “I).”
# We tested whether the progression of the cellular senescence in primary spongiosa of long bone, as indicated by loss of nestin expression, is associated with bone growth/accrual. […] We assessed changes in nestin expression in the femoral primary spongiosa in pubertal mice after administration of recombinant GH. […]
# [6] = MPS plus GSK-J4 10 mg/kg b.w. daily for 4 weeks, compared to MPS alone and to controls
# [7] = summary statement, glucocorticoid-treated mice
molecule,measurement,setting,value
"CCOC(=O)CCNc1cc(N2CCc3ccccc3CC2)nc(-c2ccccn2)n1 [GSK-J4, N-[2-(2-Pyridinyl)-6-(1,2,4,5-tetrahydro-3H-3-benzazepin-3-yl)-4-pyrimidinyl]-β-alanine ethyl ester]","bone loss phenotype induced by MPS (μCT of distal femur: femur length, BV/TV, Tb.N, Tb.Th, Tb.Sp)","BALB/c mice [1]; MPS plus GSK-J4 10 mg/kg b.w. daily for 4 weeks, 10 mg/kg",at least partially reversed; also recorded: rescued
same,angiogenesis in femoral primary spongiosa (CD31 / Emcn fluorescence intensities),BALB/c mice [1]; [6],greatly improve
same,osteogenesis in femoral primary spongiosa (Osx+ cells),BALB/c mice [1]; [6],greatly improve
same,MPS-induced shortening of tail length,"BALB/c mice [1]; concurrent treatment, MPS plus GSK-J4 10 mg/kg b.w. daily, 2, 3 and 4 weeks",abolished
same,glucocorticoid-induced growth retardation,BALB/c mice [1]; summary statement,rescued
same,H3K27 methylation,BALB/c mice [1]; [7],elevated
same,early onset cellular senescence,BALB/c mice [1]; [7],blocked
same,growth of childhood cancer diffuse intrinsic pontine glioma,[2],effectively inhibit
"C[C@H]1C[C@@H]2[C@H]([C@@H](O)C[C@@]3(C)[C@H]2CC[C@]3(O)C(=O)CO)[C@@]2(C)C=CC(=O)C=C12 [MPS, methylprednisolone]",tail length,"BALB/c mice [1]; MPS alone daily, 2, 3 and 4 weeks, compared with controls",significantly shortened
same,body weight,"BALB/c mice [1]; MPS alone daily, monitored at 2, 3 and 4 weeks after treatment",no significant effect
same,ki67 expression in sorted CD144+ cells (quantitative RT-PCR),BALB/c mice [3],less
same,p16^INK4a expression in sorted CD144+ cells (quantitative RT-PCR),BALB/c mice [3],increased
same,p21^CIP1 expression in sorted CD144+ cells (quantitative RT-PCR),BALB/c mice [3],increased
same,p53 expression in sorted CD144+ cells (quantitative RT-PCR),BALB/c mice [3],increased
C[C@]12C=CC(=O)C=C1CC[C@@H]1[C@@H]2[C@@H](O)C[C@@]2(C)[C@H]1CC[C@]2(O)C(=O)CO [prednisolone],senescence of the cells in primary spongiosa,Nestin-GFP mice [4]; mice treated with prednisolone,accelerated
same,Ki67+ proliferative cells in femoral primary spongiosa,"Nestin-GFP mice [4]; prednisolone 10 mg/m^2/day daily i.p. for 2 weeks, vs vehicle",reduced
same,number of Nestin-GFP+ cells in femoral primary spongiosa (immunofluorescence staining and flow cytometry),"Nestin-GFP mice [4]; prednisolone 10 mg/m^2/day daily i.p. from age 2 weeks to 4 weeks, relative to vehicle-treated mice",significantly reduced
B1,percentage of Ki67+ proliferative cells in primary spongiosa,"Nestin-GFP mice [5]; GH 5 mg/kg daily i.p. for 4 weeks, relative to vehicle-treated mice",higher
same,senescence of the cells in primary spongiosa,Nestin-GFP mice [5]; mice treated with growth hormone,reduced
same,Nestin-GFP+ cells in primary spongiosa (immunofluorescence staining),"Nestin-GFP mice [5]; recombinant mouse-GH 5 mg/kg B.W. daily intraperitoneal injection for 4 weeks from 4 weeks of age, vs vehicle-treated mice",significantly increased
